Data: patent publication EP0551434B1 (BOARD OF REGENTS THE UNIVERSITY OF TEXAS SYSTEM, priority 1990, dated 1992)
Where two headings read alike, the source gives them in different places.

Experiments:
[1] = In vivo biodistribution of N,N-diethyl-[^18F]fluoromethyltamoxifen in rats; details: rat, iv; for tissue uptake at 2 h / tissue uptake at 4 h: primed with 60 μg of estradiol for 3 days
Description: Four groups of rats (150-200 gm, N = 4/group) were anesthetized with ketamine (10-15 mg/rat). […]. Tissue uptake of ^18F-tracer was determined at 2 and 4 hours (h). To ascertain whether the ^18 F-tracer uptake was mediated by a receptor-process, one group of rats was given ^18F-tracer without priming with estradiol; and another group of rats was given unlabeled estradiol (30 µg/rat) together with ^18 F-tracer. […]

estrogen receptor [2] = biological target: T1, estrogen receptor (Sus scrofa, UniProt Q29040)
T1 sequence (Q29040 1-595): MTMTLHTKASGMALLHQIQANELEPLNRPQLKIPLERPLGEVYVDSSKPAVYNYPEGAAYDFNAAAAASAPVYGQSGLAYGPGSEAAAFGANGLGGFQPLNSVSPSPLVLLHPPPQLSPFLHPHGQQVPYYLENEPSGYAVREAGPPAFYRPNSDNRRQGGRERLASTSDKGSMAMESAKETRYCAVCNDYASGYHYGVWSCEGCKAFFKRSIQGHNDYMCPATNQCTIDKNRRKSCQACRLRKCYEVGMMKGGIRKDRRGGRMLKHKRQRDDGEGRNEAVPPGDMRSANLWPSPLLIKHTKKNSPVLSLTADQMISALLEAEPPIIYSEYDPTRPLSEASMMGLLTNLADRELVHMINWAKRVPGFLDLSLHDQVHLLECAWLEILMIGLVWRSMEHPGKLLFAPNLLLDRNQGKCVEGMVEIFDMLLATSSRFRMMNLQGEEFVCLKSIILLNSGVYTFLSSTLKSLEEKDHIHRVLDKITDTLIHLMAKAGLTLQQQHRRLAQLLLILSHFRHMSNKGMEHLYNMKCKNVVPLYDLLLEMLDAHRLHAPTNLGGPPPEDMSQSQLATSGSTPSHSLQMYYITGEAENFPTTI
Description: (§1) Briefly, uteri (90 gm) were obtained from immature domestic swine (15kg) was homogenized in Tris buffer (10 mM, pH 7.4) (1 uterus/180 ml), which contained EDTA (1.5 mM) and sodium Azide (3 mM). The homogenate was centrifuged at 100,000 g for 1 hour at 4 ° C. Uteri cytosol (contains 2% of protein from corresponding uterus tissue) were then pretreated with dextran-coated charcoal as described.^10 Protein concentrations were determined according to the method of Lowry et al.^12

estrogen receptor [3] = biological target: T1, estrogen receptor; assay: biochemical
Description: as §1

MCF7 = assay: Inhibition of MCF7 breast tumor cell growth in vitro (72 hour exposure, MTT tetrazolium dye assay); format: cell-based, human; details: for RP: relative potency, tamoxifen = 100
Description: The MCF7 cell line is a human tumor cell line. This cell line was cultured in MEM( (Eagles) media in a 5% C0^2 atmosphere with 10% fetal calf serum that had been washed twice with dextran coated charcoal to reduce endogenous estrogen levels. The media was supplemented with 1 mM sodium pyruvate and 100 µm non-essential amino acids. The cell line was screened routinely for myoplasma contamination using the GenProbe kit (Fisher). Cells were trypsinized and plated at a density of 5,000 cells/well in 96 well microtiter plates and allowed to attach and recover for 24 hours.
The media was removed by aspiration and replaced with filter sterilized drug (concentration from 10-^4 M to […]) in media. The cells were incubated for 72 hours and then stained using the MTT tetrazolium dye assay of Mosmann^36 except that after the media was removed, the blue formazan product was solubilized in 50 µl/well DMSO.

[4] = 2h(BLOCK): coinjected with estradiol (30μg)
[5] = 2h, without prime with estradiol (control)
[6] = IC50(M), [^3H]estradiol 5 nM, 4°C
[7] = IC50(uM), concentration required to decrease bound [^3H]estradiol by 50%, average of three experiments
[8] = IC-50 estrogen receptor binding, [^3H]estradiol (5 nM)
[9] = Homo sapiens, MCF7, 72 h, Table 6, 72 hour exposure, average of three experiments, read-out: IC50 Dose
[10] = Table 6, IC50 ratio between tamoxifen and competitor
[11] = Homo sapiens, MCF7, text values b172, read-out: IC50 MCF7 cell inhibition (converted)

## CCN(CC)CCOc1ccc(C(=C(CCC[18F])c2ccccc2)c2ccccc2)cc1 [N,N-DIETHYL-[^18F]FLUOROMETHYLTAMOXIFEN]
[1]; blood, 2h, read-out: BLOOD
  tissue uptake at 2 h: 0.033 ± 0.0059 %ID/g
[1]; blood, read-out: BLOOD
  tissue uptake at 4 h: 0.045 ± 0.0003 %ID/g
[1]; bone, 2h, read-out: BONE
  tissue uptake at 2 h: 0.653 ± 0.135 %ID/g
[1]; bone, read-out: BONE
  tissue uptake at 4 h: 0.802 ± 0.0556 %ID/g
[1]; intestine, 2h, read-out: INTESTINE
  tissue uptake at 2 h: 0.917 ± 0.306 %ID/g
[1]; intestine, read-out: INTESTINE
  tissue uptake at 4 h: 1.1 ± 0.599 %ID/g
[1]; kidney, 2h, read-out: KIDNEY
  tissue uptake at 2 h: 0.742 ± 0.0756 %ID/g
[1]; kidney, read-out: KIDNEY
  tissue uptake at 4 h: 0.796 ± 0.03 %ID/g
[1]; liver, 2h, read-out: LIVER
  tissue uptake at 2 h: 4.54 ± 0.505 %ID/g
[1]; liver, read-out: LIVER
  tissue uptake at 4 h: 4.21 ± 0.44 %ID/g
[1]; muscle, 2h, read-out: MUSCLE
  tissue uptake at 2 h: 0.151 ± 0.0203 %ID/g
[1]; muscle, read-out: MUSCLE
  tissue uptake at 4 h: 0.183 ± 0.0015 %ID/g
[1]; [4]
  BLOOD: 0.048±0.0066 % OF INJECTED DOSE/GRAM OF TISSUE WEIGHT
  BONE: 0.576±0.1268 % OF INJECTED DOSE/GRAM OF TISSUE WEIGHT
  INTESTINE: 0.742±0.458 % OF INJECTED DOSE/GRAM OF TISSUE WEIGHT
  KIDNEY: 0.742±0.1451 % OF INJECTED DOSE/GRAM OF TISSUE WEIGHT
  LIVER: 4.451±1.1559 % OF INJECTED DOSE/GRAM OF TISSUE WEIGHT
  MUSCLE: 0.145±0.0446 % OF INJECTED DOSE/GRAM OF TISSUE WEIGHT
  UTERUS: 0.297±0.0356 % OF INJECTED DOSE/GRAM OF TISSUE WEIGHT
[1]; [5]
  BLOOD: 0.033±0.0109 % OF INJECTED DOSE/GRAM OF TISSUE WEIGHT
  BONE: 0.644±0.0656 % OF INJECTED DOSE/GRAM OF TISSUE WEIGHT
  INTESTINE: 0.504±0.1784 % OF INJECTED DOSE/GRAM OF TISSUE WEIGHT
  KIDNEY: 0.530±0.0752 % OF INJECTED DOSE/GRAM OF TISSUE WEIGHT
  LIVER: 3.849±0.4069 % OF INJECTED DOSE/GRAM OF TISSUE WEIGHT
  MUSCLE: 0.109±0.0218 % OF INJECTED DOSE/GRAM OF TISSUE WEIGHT
  UTERUS: 0.248±0.0535 % OF INJECTED DOSE/GRAM OF TISSUE WEIGHT
[1]; uterus, 2h, read-out: UTERUS
  tissue uptake at 2 h: 0.426 ± 0.0177 %ID/g
[1]; uterus, read-out: UTERUS
  tissue uptake at 4 h: 0.4 ± 0.0312 %ID/g

## CCN(CC)CCOc1ccc(/C(=C(/CCCO)c2ccccc2)c2ccccc2)cc1 [III (trans), N,N-diethyl-hydroxymethyltamoxifen]
Estrogen receptor [2]
  RBA: 4
  RBA*: 400
Estrogen receptor [3]
  Ki: 3.5 µM
Estrogen receptor [3]; [6]
  IC50: 7e-06 M
Estrogen receptor [3]; [7]
  IC50: 7e-06 M
Estrogen receptor [3]; [8]
  IC50: 7e-06 M
MCF7; [9]
  IC50: 22 µM
MCF7; [10]
  RP: 50

## CCN(CC)CCOc1ccc(/C(=C(/CCCCl)c2ccccc2)c2ccccc2)cc1 [Compound XII, 1[4-(2-Diethylaminoethoxy)phenyl]-1,2-diphenyl-5-chloro-1-pentene]
Estrogen receptor [3]; [8]
  IC50: 4e-07 M

## CCN(CC)CCOc1ccc(/C(=C(\CCCO)c2ccccc2)c2ccccc2)cc1 [III (Cis), N,N-diethyl-hydroxymethyltamoxifen]
Estrogen receptor [2]
  RBA: 3
  RBA*: 300
Estrogen receptor [3]
  Ki: 5 µM
Estrogen receptor [3]; [6]
  IC50: 1e-05 M
Estrogen receptor [3]; [7]
  IC50: 1e-05 M
Estrogen receptor [3]; [8]
  IC50: 1e-05 M
MCF7; [9]
  IC50: 16.7 µM
MCF7; [10]
  RP: 66

## CCN(CC)CCOc1ccc(/C(=C(\CCCI)c2ccccc2)c2ccccc2)cc1 [X (cis), N,N-diethyl-iodomethyltamoxifen]
Estrogen receptor [2]
  RBA: 10
  RBA*: 1,000
  fold higher affinity for the estrogen receptor than native tamoxifen: 10 fold
Estrogen receptor [2]; [^3H]estradiol 5 nM, 4°C
  Ki: 1.5 µM
Estrogen receptor [3]
  Ki: 1.5 µM
Estrogen receptor [3]; [6]
  IC50: 3e-06 M
Estrogen receptor [3]; [7]
  IC50: 3e-06 M
Estrogen receptor [3]; [8]
  IC50: 3e-06 M
MCF7; [9]
  IC50: 2.36 µM
MCF7; [11]
  IC50: 2.4 µM
MCF7; [10]
  RP: 466

## Fluorotamoxifen [Compound VII (Cis)]
MCF7; comparative compounds IV and VII, average of three experiments, read-out: IC50 Dose
  IC50: 4.5 µM
MCF7; comparative compounds IV and VII
  RP: 224

## CCN(CC)CCOc1ccc(/C(=C(\CCCCl)c2ccccc2)c2ccccc2)cc1 [Compound XII (Cis), 1[4-(2-Diethylaminoethoxy)phenyl]-1,2-diphenyl-5-chloro-1-pentene]
Estrogen receptor [2]
  RBA: 7.5
Estrogen receptor [3]; [7]
  IC50: 4e-06 M
Estrogen receptor [3]; [8]
  IC50: 4e-06 M
MCF7; [10]
  RP: 335

## CCN(CC)CCOc1ccc(/C(=C(\CCCBr)c2ccccc2)c2ccccc2)cc1 [Compound XI (Cis), 1-[4-(2-Diethylaminoethoxy)phenyl]-1,2-diphenyl-5-bromo-1-entene]
Estrogen receptor [2]; IC50 ratio between tamoxifen and competitor, tamoxifen printed as 1
  RBA: 37.5
Estrogen receptor [3]; [7]
  IC50: 8e-07 M
Estrogen receptor [3]; [8]
  IC50: 8e-07 M
MCF7; Homo sapiens, MCF7, 72 h, read-out: IC50 Dose (µM)
  IC50: 0.62 µM
MCF7; [10]
  RP: 2355

## CCN(CC)CCOc1ccc(/C(=C(\CCCF)c2ccccc2)c2ccccc2)cc1 [VI (Cis), N,N-diethyl-fluoromethyltamoxifen]
MCF7; [9]
  IC50: 4.5 µM
MCF7; [11]
  IC50: 4.5 µM
MCF7; [10]
  RP: 244

## CCN(CC)CCOc1ccc(C(=C(CCCBr)c2ccccc2)c2ccccc2)cc1 [Compound XI, 1-[4-(2-Diethylaminoethoxy)phenyl]-1,2-diphenyl-5-bromo-1-entene]
Estrogen receptor [3]; IC-50, text value, Example 5
  IC50: 2e-07 M
Estrogen receptor [3]; [8]
  IC50: 2e-07 M
